From ChEMBL document CHEMBL1649214, “Antimalarial activity of tigecycline, a novel glycylcycline antibiotic” (Antimicrob Agents Chemother, 2009)
pIC50: −log10 of the molar value.

Tests used:
Plasmodium falciparum [1] = assay: Antimalarial activity against Plasmodium falciparum isolates assessed as parasite growth inhibition after 72 hrs by ELISA based histidine-rich protein 2 in vitro drug susceptibility assay; assay type: functional, organism-based
Plasmodium falciparum [2] = assay: Ratio of IC50 for Plasmodium falciparum isolates after 72 hrs to IC50 for Plasmodium falciparum isolates after 24 hrs by ELISA based histidine-rich protein 2 in vitro drug susceptibility assay; assay type: functional

SMILES	pIC50 (Plasmodium falciparum [1])	IC90 (Plasmodium falciparum [1])	IC99 (Plasmodium falciparum [1])	Ratio IC50 (Plasmodium falciparum [2])
C[C@H]1[C@@H](O)O[C@@H]2O[C@@]3(C)CC[C@H]4[C@H](C)CC[C@@H]1[C@@]24OO3 [ARTENIMOL]	9.11	0.00276 µM	0.004 µM	–
CC[C@H]1OC(=O)[C@H](C)[C@@H](O[C@H]2C[C@@](C)(OC)[C@@H](O)[C@H](C)O2)[C@H](C)[C@@H](O[C@@H]2O[C@H](C)C[C@H](N(C)C)[C@H]2O)[C@](C)(O)C[C@@H](C)CN(C)[C@H](C)[C@@H](O)[C@]1(C)O [AZITHROMYCIN]	5.37	18.4 µM	26.7 µM	–
CCN(CC)CCCC(C)Nc1ccnc2cc(Cl)ccc12 (configuration not stated) [CHLOROQUINE]	–	0.303 µM	0.436 µM	–
C[C@H]1c2cccc(O)c2C(=O)C2=C(O)[C@]3(O)C(=O)C(C(N)=O)=C(O)[C@@H](N(C)C)[C@@H]3[C@@H](O)[C@@H]21.O [DOXYCYCLINE]	5.37	19.4 µM	27.2 µM	13
OC(c1cc(C(F)(F)F)nc2c(C(F)(F)F)cccc12)C1CCCCN1 (configuration not stated) [MEFLOQUINE]	7.84	0.064 µM	0.106 µM	–
C=C[C@H]1CN2CC[C@H]1C[C@H]2[C@H](O)c1ccnc2ccc(OC)cc12 [QUININE]	6.98	0.441 µM	0.673 µM	–
CN(C)c1cc(NC(=O)CNC(C)(C)C)c(O)c2c1C[C@H]1C[C@H]3[C@H](N(C)C)C(O)=C(C(N)=O)C(=O)[C@@]3(O)C(O)=C1C2=O [TIGECYCLINE]	6.16	5.91 µM	12.4 µM	49
